Values quoted from earlier work as cited in patent publication US10960001B2, “Opioid agonist / antagonist combination dosage forms” (KASHIV PHARMA LLC, priority 2017, dated 2021).

What was measured:
[1] = 25° C.

SMILES | solubility in water [1] | oral bioavailability (after intake of therapeutic doses) | bioavailability with oral ingestion (oral ingestion)
C=CCN1CC[C@]23c4c5ccc(O)c4O[C@H]2C(=O)CC[C@@]3(O)[C@H]1C5 [Naloxone free base, naloxone] | about 1.4 mg/mL |  | 
C=CCN1CC[C@]23c4c5ccc(O)c4O[C@H]2C(=O)CC[C@@]3(O)[C@H]1C5 [Naloxone, naloxone] |  | 2-3% | about 2%
